In ChEMBL document CHEMBL5291721, “A preclinical secondary pharmacology resource illuminates target-adverse drug reaction associations of marketed drugs” (Nat Commun, 2023):

Legend:
[1] = target: Sodium-dependent serotonin transporter (Homo sapiens, UniProt P31645)
Vasopressin V1a receptor = Vasopressin V1a receptor (Homo sapiens, UniProt P37288)
Androgen receptor = target: T1, Androgen receptor (Rattus norvegicus, UniProt P15207); type: functional
T1 sequence (P15207 whole entry): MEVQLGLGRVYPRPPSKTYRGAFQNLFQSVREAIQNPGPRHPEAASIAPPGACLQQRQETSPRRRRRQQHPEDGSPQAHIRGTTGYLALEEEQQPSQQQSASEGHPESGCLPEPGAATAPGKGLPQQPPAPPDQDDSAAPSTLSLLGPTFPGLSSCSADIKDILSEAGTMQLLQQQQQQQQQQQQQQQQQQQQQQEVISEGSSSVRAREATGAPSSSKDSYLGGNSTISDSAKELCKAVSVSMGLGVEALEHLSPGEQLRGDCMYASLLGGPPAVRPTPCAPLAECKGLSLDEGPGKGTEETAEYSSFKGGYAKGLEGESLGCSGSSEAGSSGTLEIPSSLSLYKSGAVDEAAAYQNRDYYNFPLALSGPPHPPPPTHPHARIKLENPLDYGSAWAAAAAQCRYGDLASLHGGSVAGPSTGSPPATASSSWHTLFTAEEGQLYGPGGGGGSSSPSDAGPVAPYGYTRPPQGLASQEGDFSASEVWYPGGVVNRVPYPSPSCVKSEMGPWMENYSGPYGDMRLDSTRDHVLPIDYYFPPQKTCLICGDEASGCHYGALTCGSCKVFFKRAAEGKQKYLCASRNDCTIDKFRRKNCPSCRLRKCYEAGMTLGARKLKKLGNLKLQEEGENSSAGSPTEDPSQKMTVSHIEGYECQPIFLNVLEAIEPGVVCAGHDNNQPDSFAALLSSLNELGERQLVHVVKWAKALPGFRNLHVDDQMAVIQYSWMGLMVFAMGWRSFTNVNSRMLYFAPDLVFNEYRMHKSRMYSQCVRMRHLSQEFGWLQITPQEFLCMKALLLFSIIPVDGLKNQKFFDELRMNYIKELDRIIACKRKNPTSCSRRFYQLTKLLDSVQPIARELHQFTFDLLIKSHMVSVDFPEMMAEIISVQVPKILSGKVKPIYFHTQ

[2] = target: T2, Beta-2 adrenergic receptor (Homo sapiens, UniProt P07550)
Endothelin-1 receptor = target: T3, Endothelin-1 receptor (Homo sapiens, UniProt P25101)
T3 sequence (P25101 whole entry): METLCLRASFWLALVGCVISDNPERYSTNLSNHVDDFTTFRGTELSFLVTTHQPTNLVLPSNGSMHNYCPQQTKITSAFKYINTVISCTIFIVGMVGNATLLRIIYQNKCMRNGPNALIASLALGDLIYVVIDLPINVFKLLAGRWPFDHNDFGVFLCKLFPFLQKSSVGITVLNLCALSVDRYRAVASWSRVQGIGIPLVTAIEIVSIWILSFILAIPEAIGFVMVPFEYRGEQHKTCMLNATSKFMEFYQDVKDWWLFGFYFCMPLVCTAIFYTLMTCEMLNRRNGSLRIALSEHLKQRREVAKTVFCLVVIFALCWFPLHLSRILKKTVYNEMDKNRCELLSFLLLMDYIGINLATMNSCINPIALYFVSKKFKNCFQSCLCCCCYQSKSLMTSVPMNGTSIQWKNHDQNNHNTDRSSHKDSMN

[3] = target: T4, Alpha-2B adrenergic receptor (Homo sapiens, UniProt P18089)
T4 sequence (P18089 whole entry): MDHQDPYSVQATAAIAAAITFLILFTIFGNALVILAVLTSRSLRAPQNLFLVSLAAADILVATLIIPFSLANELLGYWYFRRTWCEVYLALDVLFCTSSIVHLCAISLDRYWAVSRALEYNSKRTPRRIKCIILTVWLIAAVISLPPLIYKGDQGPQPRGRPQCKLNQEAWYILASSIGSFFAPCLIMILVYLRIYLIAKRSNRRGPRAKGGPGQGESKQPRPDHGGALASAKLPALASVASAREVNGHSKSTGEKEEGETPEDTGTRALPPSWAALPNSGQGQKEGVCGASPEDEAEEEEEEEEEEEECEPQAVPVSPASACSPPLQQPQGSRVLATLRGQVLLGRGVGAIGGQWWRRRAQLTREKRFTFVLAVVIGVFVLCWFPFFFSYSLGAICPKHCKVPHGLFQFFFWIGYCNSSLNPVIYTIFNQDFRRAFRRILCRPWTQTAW

[4] = target: 5-hydroxytryptamine receptor 2A (Homo sapiens, UniProt P28223); type: functional, cell-based
[5] = target: Gamma-aminobutyric acid receptor subunit alpha-1/alpha-2/beta-2/gamma-2 (Homo sapiens, UniProt P14867+P18507+P47869+P47870); type: functional, cell-based
[6] = target: T2, Beta-2 adrenergic receptor; type: functional, cell-based
[7] = target: T5, Alpha-1A adrenergic receptor (Homo sapiens, UniProt P35348)
T5 sequence (P35348 whole entry): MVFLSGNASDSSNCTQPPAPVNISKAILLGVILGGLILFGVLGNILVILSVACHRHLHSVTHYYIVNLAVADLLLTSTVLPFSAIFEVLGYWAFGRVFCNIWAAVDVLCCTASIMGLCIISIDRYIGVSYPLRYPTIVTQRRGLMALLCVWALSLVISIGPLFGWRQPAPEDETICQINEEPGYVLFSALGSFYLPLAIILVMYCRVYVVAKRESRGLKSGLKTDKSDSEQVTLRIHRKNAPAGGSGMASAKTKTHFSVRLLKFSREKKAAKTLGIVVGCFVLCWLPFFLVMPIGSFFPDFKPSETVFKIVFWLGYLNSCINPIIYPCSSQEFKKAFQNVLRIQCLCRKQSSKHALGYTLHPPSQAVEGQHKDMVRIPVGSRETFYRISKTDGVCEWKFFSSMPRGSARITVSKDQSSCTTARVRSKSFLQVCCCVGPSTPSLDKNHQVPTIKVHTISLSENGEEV

Mu-type opioid receptor = Mu-type opioid receptor (Homo sapiens, UniProt P35372)
Cannabinoid receptor 1 = Cannabinoid receptor 1 (Homo sapiens, UniProt P21554)
Note: assay procedure not described here.

Chain of 5-hydroxytryptamine receptor 2A (P28223 whole entry): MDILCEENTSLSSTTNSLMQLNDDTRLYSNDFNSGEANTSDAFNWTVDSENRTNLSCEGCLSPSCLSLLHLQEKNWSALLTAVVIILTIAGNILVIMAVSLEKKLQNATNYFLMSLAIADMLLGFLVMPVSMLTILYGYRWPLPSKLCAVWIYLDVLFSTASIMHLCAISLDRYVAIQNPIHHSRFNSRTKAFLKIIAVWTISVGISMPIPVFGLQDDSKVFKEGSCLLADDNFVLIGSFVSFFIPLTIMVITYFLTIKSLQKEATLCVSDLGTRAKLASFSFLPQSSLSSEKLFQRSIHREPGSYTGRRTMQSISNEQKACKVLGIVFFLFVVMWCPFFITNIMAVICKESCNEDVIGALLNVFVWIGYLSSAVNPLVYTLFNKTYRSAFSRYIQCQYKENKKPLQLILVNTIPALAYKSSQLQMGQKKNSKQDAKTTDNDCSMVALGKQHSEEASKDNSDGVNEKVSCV
Chain of Vasopressin V1a receptor (P37288 whole entry): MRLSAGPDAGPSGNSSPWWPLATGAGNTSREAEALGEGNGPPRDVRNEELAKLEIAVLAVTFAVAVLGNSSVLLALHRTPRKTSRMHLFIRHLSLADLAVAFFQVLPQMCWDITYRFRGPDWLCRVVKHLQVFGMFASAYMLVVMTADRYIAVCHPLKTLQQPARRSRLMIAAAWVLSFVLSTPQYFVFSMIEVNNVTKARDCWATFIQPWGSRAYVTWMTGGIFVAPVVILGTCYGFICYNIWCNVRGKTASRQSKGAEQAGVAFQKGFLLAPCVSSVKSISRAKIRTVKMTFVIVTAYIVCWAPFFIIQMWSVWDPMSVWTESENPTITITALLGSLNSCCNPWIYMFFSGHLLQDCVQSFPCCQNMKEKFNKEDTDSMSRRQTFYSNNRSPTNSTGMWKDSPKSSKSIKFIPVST
Chain of Gamma-aminobutyric acid receptor subunit alpha-1/alpha-2/beta-2/gamma-2 (P14867 whole entry): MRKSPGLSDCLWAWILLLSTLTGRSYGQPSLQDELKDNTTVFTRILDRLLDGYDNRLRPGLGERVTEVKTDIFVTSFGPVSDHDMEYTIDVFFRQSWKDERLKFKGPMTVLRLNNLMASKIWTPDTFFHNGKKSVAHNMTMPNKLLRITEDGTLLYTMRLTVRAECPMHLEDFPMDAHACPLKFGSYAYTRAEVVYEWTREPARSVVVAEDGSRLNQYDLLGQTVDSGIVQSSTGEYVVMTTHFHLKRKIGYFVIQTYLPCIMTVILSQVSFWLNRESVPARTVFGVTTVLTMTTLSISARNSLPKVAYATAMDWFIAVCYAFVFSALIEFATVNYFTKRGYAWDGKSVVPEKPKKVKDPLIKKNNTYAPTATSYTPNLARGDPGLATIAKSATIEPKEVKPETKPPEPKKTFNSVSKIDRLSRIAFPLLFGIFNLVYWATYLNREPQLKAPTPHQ
Chain of Gamma-aminobutyric acid receptor subunit alpha-1/alpha-2/beta-2/gamma-2 (P47870 whole entry): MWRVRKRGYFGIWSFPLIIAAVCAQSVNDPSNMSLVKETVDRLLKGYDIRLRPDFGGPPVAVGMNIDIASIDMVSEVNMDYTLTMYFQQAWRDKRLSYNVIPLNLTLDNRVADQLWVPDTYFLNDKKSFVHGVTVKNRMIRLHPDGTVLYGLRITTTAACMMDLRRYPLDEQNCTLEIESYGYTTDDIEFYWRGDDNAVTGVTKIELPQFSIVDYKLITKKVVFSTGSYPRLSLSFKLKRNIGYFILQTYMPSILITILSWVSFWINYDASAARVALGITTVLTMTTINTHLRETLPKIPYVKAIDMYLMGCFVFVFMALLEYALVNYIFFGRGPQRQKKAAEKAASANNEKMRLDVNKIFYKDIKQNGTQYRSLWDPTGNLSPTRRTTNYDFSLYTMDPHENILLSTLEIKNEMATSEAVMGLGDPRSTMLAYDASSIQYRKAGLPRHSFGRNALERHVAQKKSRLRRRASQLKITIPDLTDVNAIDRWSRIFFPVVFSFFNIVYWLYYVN
Chain of Gamma-aminobutyric acid receptor subunit alpha-1/alpha-2/beta-2/gamma-2 (P18507 whole entry): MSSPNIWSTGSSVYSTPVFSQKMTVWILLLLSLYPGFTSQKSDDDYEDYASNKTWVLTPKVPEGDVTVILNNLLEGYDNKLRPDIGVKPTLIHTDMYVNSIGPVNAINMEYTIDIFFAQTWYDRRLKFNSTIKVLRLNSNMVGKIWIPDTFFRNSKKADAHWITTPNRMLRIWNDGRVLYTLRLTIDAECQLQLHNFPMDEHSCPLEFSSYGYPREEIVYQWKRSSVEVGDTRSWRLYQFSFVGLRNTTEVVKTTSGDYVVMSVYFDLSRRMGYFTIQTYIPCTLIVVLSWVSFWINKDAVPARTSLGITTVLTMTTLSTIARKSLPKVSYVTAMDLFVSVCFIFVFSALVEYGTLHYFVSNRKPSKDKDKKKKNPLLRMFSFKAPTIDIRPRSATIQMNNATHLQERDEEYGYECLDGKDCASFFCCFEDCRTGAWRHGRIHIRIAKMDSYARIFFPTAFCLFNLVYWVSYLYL
Chain of Gamma-aminobutyric acid receptor subunit alpha-1/alpha-2/beta-2/gamma-2 (P47869 whole entry): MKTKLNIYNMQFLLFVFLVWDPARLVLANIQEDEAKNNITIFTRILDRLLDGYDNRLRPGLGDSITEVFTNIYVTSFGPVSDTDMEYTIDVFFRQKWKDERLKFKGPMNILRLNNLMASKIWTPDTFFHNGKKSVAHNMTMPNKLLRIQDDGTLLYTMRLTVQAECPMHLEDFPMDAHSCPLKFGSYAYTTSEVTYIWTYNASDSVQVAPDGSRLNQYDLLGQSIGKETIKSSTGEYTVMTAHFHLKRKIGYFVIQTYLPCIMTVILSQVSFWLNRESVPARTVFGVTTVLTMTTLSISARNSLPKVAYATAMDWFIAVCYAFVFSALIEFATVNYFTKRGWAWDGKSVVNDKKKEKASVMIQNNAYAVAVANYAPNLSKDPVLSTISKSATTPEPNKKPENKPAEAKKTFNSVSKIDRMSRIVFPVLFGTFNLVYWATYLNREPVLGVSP
Chain of Cannabinoid receptor 1 (P21554 whole entry): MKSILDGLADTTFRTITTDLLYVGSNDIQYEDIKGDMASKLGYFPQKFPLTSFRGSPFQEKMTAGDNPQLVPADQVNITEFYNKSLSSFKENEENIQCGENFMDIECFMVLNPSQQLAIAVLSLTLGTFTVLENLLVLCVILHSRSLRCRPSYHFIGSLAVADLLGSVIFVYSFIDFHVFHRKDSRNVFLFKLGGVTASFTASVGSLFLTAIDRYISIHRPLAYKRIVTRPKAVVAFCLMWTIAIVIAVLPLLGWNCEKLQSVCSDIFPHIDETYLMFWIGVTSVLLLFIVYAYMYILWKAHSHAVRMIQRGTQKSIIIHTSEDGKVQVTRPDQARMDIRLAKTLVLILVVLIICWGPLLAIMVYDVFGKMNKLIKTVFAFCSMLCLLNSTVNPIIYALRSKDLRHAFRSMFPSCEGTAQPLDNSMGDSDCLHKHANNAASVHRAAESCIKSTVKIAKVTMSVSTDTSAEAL
T2 sequence (P07550 whole entry): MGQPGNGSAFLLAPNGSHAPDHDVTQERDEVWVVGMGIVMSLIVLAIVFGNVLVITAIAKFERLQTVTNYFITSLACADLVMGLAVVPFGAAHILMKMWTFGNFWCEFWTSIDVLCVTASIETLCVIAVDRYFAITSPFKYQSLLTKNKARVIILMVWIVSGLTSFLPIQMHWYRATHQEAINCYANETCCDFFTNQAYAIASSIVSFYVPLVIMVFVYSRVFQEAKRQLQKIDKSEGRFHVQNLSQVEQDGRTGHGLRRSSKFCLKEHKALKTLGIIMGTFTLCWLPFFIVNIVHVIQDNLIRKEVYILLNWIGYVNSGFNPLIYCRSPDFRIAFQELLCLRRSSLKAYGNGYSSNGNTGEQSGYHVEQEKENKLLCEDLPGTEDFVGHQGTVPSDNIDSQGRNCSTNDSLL
Chain of Mu-type opioid receptor (P35372 whole entry): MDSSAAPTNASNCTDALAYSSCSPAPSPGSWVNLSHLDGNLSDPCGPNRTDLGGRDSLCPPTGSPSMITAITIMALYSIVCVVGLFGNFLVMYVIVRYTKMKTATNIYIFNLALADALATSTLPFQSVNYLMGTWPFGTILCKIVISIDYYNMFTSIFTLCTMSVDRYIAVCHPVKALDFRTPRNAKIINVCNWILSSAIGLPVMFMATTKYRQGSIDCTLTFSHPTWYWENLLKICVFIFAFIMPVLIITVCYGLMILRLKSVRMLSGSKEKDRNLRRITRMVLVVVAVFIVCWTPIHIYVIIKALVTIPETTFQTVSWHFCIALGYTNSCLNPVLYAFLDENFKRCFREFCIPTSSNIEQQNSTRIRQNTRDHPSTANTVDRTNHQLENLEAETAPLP
Chain of Sodium-dependent serotonin transporter (P31645 whole entry): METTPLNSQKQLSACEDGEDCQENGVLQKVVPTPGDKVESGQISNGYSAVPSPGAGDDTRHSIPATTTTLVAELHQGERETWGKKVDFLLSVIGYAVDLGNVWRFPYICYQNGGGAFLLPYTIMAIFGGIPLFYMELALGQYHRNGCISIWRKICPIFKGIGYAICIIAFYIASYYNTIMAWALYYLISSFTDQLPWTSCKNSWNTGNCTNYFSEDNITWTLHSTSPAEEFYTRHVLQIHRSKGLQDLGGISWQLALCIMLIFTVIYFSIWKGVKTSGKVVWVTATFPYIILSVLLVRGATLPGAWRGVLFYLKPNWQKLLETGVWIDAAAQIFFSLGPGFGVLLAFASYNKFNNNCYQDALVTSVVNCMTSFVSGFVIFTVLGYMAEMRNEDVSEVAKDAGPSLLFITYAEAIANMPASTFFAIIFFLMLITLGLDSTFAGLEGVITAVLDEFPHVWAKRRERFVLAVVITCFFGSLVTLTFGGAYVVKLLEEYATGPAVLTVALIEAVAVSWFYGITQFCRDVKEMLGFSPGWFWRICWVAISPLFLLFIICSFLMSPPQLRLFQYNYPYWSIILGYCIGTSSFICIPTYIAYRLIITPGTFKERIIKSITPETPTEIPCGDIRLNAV

| Compound | AC50 [1] [µM] | AC50 (Vasopressin V1a receptor) [µM] | AC50 (Androgen receptor) [µM] | AC50 [2] [µM] | AC50 (Endothelin-1 receptor) [µM] | AC50 [3] [µM] | AC50 [4] [µM] | AC50 [5] [µM] | AC50 [6] [µM] | AC50 [7] [µM] | AC50 (Mu-type opioid receptor) [µM] | AC50 (Cannabinoid receptor 1) [µM] |
| --- | --- | --- | --- | --- | --- | --- | --- | --- | --- | --- | --- | --- |
| Fc1ccc(C(c2ccccc2)(c2ccccc2F)n2ccnc2)cc1 (stereo not given) [FLUTRIMAZOLE] | > 30 | > 30 | > 30 | > 30 | > 30 | > 30 | > 30 |  |  |  |  |  |
| COc1ccc2c3c1O[C@H]1[C@@H](O)CC[C@H]4[C@@H](C2)N(C)CC[C@@]341 [DIHYDROCODEINE] |  |  |  |  |  | > 30 | > 30 | > 30 | > 30 |  |  |  |
| CC(C)(C)NCC(O)COc1cccc2c1CCC(=O)N2 (stereo not given) [CARTEOLOL] | > 10 | > 10 |  |  |  | > 10 | > 10 |  |  | > 10 | > 30 |  |
| C[C@@H]1O[C@@H](O[C@@H]2C=C3CC[C@@H]4[C@H](CC[C@]5(C)[C@@H](c6ccc(=O)oc6)CC[C@]45O)[C@@]3(C)CC2)[C@H](O)[C@H](O)[C@H]1O [PROSCILLARIDIN] |  |  | > 30 |  | > 30 |  |  |  | > 30 |  |  |  |
| Clc1ccccc1C(c1ccccc1)(c1ccccc1)n1ccnc1 [CLOTRIMAZOLE] |  |  |  | 15 |  |  |  |  | > 30 | > 10 |  | > 10 |
| Brc1c(NC2=NCCN2)ccc2nccnc12 [BRIMONIDINE] |  |  |  |  | > 30 |  |  | > 30 | > 30 |  |  |  |
| Cc1cc(C(C)(C)C)c(O)c(C)c1CC1=NCCN1 [OXYMETAZOLINE] |  |  | > 30 |  |  |  |  | > 30 | > 30 |  | > 30 |  |
| Nc1nc(Cl)nc2c1ncn2[C@H]1C[C@H](O)[C@@H](CO)O1 [CLADRIBINE] |  |  |  |  | > 30 |  |  | > 30 | > 30 |  |  |  |
| O=C1C(O)=C([C@H]2CC[C@H](c3ccc(Cl)cc3)CC2)C(=O)c2ccccc21 [ATOVAQUONE] | > 30 | > 30 | > 30 | > 30 | > 30 | > 30 | > 30 |  |  | > 30 |  | > 30 |
| COc1cccc(C2(O)CCCCC2CN(C)C)c1 (stereo not given) [TRAMADOL] |  | > 10 |  | > 10 | > 30 |  |  |  | > 30 | > 10 |  | > 10 |
| CC1(C)CCC(CN2CCN(c3ccc(C(=O)NS(=O)(=O)c4ccc(NCC5CCOCC5)c([N+](=O)[O-])c4)c(Oc4cnc5[nH]ccc5c4)c3)CC2)=C(c2ccc(Cl)cc2)C1 [VENETOCLAX] | > 30 |  | > 30 |  |  |  |  |  | > 30 |  |  |  |
| NC(=O)OCC(COC(N)=O)c1ccccc1 [FELBAMATE] | > 10 | > 10 |  | > 10 |  | > 10 | > 10 |  |  | > 10 | > 30 | > 10 |
| CC/C(=C(\c1ccccc1)c1ccc(OCCN(C)C)cc1)c1ccccc1 [TAMOXIFEN] |  |  |  | 13.6 |  |  |  |  |  | > 10 | > 30 |  |
| C[C@H]1COc2c(C3(N)CC3)c(F)cc3c(=O)c(C(=O)O)cn1c23 [PAZUFLOXACIN] | > 10 | > 10 |  | > 10 |  | > 10 | > 10 |  |  | > 10 | > 30 | > 10 |
| C#C[C@]1(O)CC[C@H]2[C@@H]3[C@H](C)CC4=C(CCC(=O)C4)[C@H]3CC[C@@]21C [TIBOLONE] |  |  |  |  | > 30 |  |  |  | > 30 |  |  |  |
| Cc1c(OCC(F)(F)F)ccnc1C[S+]([O-])c1nc2ccccc2[nH]1 (stereo not given) [LANSOPRAZOLE] |  | > 10 |  | > 10 | > 30 |  |  |  |  | > 10 | 4 |  |
| CC(CC1c2ccccc2CCc2ccccc21)CN(C)C (stereo not given) [BUTRIPTYLINE] |  |  |  |  |  | 5 | 15 | > 30 | > 30 |  |  |  |
| NC(=O)CN1CC(O)CC1=O (stereo not given) [OXIRACETAM] | > 30 | > 30 | > 30 |  | > 30 | > 30 | > 30 | > 30 | > 30 | > 30 |  |  |
| Cc1nnc2n1-c1ccc(Cl)cc1C(c1ccccc1Cl)=NC2 [TRIAZOLAM] | > 30 | > 30 |  | > 10 |  | > 10 | > 30 |  |  | > 10 | > 30 |  |
| COc1ccc(CCNCC(O)COc2cccc(C)c2)cc1OC (stereo not given) [BEVANTOLOL] | 3 | > 10 |  |  |  | > 10 | > 10 |  |  | 1.2 | > 10 | > 10 |
